Test results published in patent US20240083897A1, “GCN2 MODULATING COMPOUNDS AND USES THEREOF” (HiberCell, Inc., priority 2021, published 2024).
Where two headings read alike, the source gives them in different places.

Target: GCN2 (Homo sapiens (Human), UniProt Q9P2K8)
Experiment: TR-FRET biochemical assay for inhibition of GCN2
[1] = GCN2 2 nM, 100 nM GFP-eIF2a, 150 μM ATP, TR-FRET

Sequence of GCN2 (Q9P2K8 whole entry): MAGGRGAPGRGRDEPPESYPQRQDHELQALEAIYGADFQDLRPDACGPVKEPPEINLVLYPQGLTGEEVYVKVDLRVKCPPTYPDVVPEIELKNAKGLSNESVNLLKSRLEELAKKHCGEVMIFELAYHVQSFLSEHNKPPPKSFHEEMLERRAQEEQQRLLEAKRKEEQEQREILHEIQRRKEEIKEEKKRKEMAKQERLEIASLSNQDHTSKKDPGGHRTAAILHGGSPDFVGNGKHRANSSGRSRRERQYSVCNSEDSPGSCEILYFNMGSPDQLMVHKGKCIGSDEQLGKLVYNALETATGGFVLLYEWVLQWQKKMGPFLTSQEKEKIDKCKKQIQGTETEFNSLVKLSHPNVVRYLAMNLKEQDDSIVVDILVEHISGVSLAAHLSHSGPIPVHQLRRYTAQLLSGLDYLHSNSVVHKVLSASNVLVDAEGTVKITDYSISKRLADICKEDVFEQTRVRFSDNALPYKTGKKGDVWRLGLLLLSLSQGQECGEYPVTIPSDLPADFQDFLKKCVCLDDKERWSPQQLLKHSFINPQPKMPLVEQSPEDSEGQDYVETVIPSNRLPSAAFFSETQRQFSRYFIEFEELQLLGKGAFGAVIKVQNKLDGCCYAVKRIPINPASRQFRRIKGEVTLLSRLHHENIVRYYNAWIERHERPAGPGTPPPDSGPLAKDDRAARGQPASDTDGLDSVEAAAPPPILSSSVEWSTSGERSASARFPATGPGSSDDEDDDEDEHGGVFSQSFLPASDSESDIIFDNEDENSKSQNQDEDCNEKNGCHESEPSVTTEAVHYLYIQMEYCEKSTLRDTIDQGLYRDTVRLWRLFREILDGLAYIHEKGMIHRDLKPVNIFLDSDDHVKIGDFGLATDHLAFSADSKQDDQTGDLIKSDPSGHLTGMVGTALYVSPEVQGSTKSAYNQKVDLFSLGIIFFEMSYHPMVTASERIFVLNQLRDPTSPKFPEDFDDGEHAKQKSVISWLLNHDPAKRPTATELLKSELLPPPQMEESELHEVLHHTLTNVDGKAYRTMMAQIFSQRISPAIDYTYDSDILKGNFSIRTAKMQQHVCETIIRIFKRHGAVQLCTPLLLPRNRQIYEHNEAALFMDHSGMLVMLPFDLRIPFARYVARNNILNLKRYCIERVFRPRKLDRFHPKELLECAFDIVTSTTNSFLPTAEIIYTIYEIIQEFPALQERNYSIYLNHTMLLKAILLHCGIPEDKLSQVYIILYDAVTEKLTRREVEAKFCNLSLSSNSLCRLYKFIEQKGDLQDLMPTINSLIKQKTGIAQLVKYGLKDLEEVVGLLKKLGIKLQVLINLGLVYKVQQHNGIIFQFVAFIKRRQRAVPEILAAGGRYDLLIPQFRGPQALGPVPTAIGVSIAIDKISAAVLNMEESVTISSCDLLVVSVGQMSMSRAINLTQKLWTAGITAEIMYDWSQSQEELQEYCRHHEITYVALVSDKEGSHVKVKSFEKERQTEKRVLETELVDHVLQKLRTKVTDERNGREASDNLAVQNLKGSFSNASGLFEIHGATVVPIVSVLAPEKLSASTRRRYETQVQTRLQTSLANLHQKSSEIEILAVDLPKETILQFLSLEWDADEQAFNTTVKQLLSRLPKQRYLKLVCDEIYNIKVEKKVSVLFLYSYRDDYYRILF

| SMILES | IC50 [nM] | IC50 [1] [nM] |
| --- | --- | --- |
| CNC(=O)c1ncn2cc(-c3c(F)ccc(NS(=O)(=O)c4cc(Cl)cnc4OC)c3C)ccc12 [Compound 122, 6-[3-(5-chloro-2-methoxypyridine-3-sulfonamido)-6-fluoro-2-methylphenyl]-N-methylimidazo[1,5-a]pyridine-1-carboxamide] | 50 to 500 | – |
| COc1ncc(C#N)cc1S(=O)(=O)Nc1ccc(F)c(-c2ccc3c(-c4nc5c([nH]4)CCCC5)ncn3c2)c1F [Compound 123, 5-cyano-N-[2,4-difluoro-3-[1-(4,5,6,7-tetrahydro-1H-1,3-benzodiazol-2-yl)imidazo[1,5-a]pyridin-6-yl]phenyl]-2-methoxypyridine-3-sulfonamide] | – | < 50 |
| COc1ncc(Cl)cc1S(=O)(=O)Nc1ccc(F)c(-c2cn3cnc(-c4nnc(C)[nH]4)c3cn2)c1F [Compound 124, 5-chloro-N-[2,4-difluoro-3-[1-(5-methyl-4H-1,2,4-triazol-3-yl)imidazo[1,5-a]pyrazin-6-yl]phenyl]-2-methoxypyridine-3-sulfonamide] | – | < 50 |
| Cc1ncc(F)cc1S(=O)(=O)Nc1ccc(F)c(-c2ccc3c(-c4ccno4)ncn3c2)c1F [Compound 125, N-[2,4-difluoro-3-[1-(1,2-oxazol-5-yl)imidazo[1,5-a]pyridin-6-yl]phenyl]-5-fluoro-2-methylpyridine-3-sulfonamide] | – | < 50 |
| COc1ncc(C#N)cc1S(=O)(=O)Nc1ccc(F)c(-c2ccc3c(-c4nc(C)c(C)[nH]4)ncn3c2)c1F [Compound 126, 5-cyano-N-[3-[1-(4,5-dimethyl-1H-imidazol-2-yl)imidazo[1,5-a]pyridin-6-yl]-2,4-difluorophenyl]-2-methoxypyridine-3-sulfonamide] | – | < 50 |
| COc1ncc(F)cc1S(=O)(=O)Nc1ccc(F)c(-c2cn3cnc(-c4nnc(C)[nH]4)c3cn2)c1F [Compound 127, N-[2,4-difluoro-3-[1-(5-methyl-4H-1,2,4-triazol-3-yl)imidazo[1,5-a]pyrazin-6-yl]phenyl]-5-fluoro-2-methoxypyridine-3-sulfonamide] | 50 to 500 | – |
| COc1ncc(C#N)cc1S(=O)(=O)Nc1ccc(F)c(-c2cn3cnc(-c4nnc(C)[nH]4)c3cn2)c1F [Compound 128, 5-cyano-N-[2,4-difluoro-3-[1-(5-methyl-4H-1,2,4-triazol-3-yl)imidazo[1,5-a]pyrazin-6-yl]phenyl]-2-methoxypyridine-3-sulfonamide] | 50 to 500 | – |
| Cc1nnc(-c2ncn3cc(-c4c(F)ccc(NS(=O)(=O)c5cc(F)cnc5C)c4F)ncc23)[nH]1 [Compound 129, N-[2,4-difluoro-3-[1-(5-methyl-4H-1,2,4-triazol-3-yl)imidazo[1,5-a]pyrazin-6-yl]phenyl]-5-fluoro-2-methylpyridine-3-sulfonamide] | – | < 50 |
| COc1ncc(Cl)cc1S(=O)(=O)Nc1ccc(F)c([C@@H]2CCc3c(-c4nnc(C)[nH]4)ncn3C2)c1F [Compound 130-1, 5-chloro-N-[2,4-difluoro-3-[(6S)-1-(5-methyl-4H-1,2,4-triazol-3-yl)-5H,6H,7H,8H-imidazo[1,5-a]pyridin-6-yl]phenyl]-2-methoxypyridine-3-sulfonamide] | – | < 50 |
| COc1ncc(Cl)cc1S(=O)(=O)Nc1ccc(F)c([C@H]2CCc3c(-c4nnc(C)[nH]4)ncn3C2)c1F [Compound 130-2, 5-chloro-N-[2,4-difluoro-3-[(6R)-1-(5-methyl-4H-1,2,4-triazol-3-yl)-5H,6H,7H,8H-imidazo[1,5-a]pyridin-6-yl]phenyl]-2-methoxypyridine-3-sulfonamide] | – | < 50 |
| COc1ncc(F)cc1S(=O)(=O)Nc1ccc(F)c([C@@H]2CCc3c(-c4nnc(C)[nH]4)ncn3C2)c1F [Compound 131-1, N-[2,4-difluoro-3-[(6S)-1-(5-methyl-4H-1,2,4-triazol-3-yl)-5H,6H,7H,8H-imidazo[1,5-a]pyridin-6-yl]phenyl]-5-fluoro-2-methoxypyridine-3-sulfonamide] | – | < 50 |
| COc1ncc(F)cc1S(=O)(=O)Nc1ccc(F)c([C@H]2CCc3c(-c4nnc(C)[nH]4)ncn3C2)c1F [Compound 131-2, N-[2,4-difluoro-3-[(6R)-1-(5-methyl-4H-1,2,4-triazol-3-yl)-5H,6H,7H,8H-imidazo[1,5-a]pyridin-6-yl]phenyl]-5-fluoro-2-methoxypyridine-3-sulfonamide] | – | < 50 |
| CNC(=O)c1ncn2cc(-c3c(F)ccc(NS(=O)(=O)c4cc(Cl)c[nH]c4=O)c3F)ncc12 [Compound 132, 6-(3-((5-chloro-2-oxo-1,2-dihydropyridine)-3-sulfonamido)-2,6-difluorophenyl)-N-methylimidazo[1,5-a]pyrazine-1-carboxamide] | – | > 1000 |
| Cc1nnc(-c2ncn3cc(-c4c(F)ccc(NS(=O)(=O)c5cc(Cl)cnc5C)c4F)ncc23)[nH]1 [Compound 133, 5-chloro-N-[2,4-difluoro-3-[1-(5-methyl-4H-1,2,4-triazol-3-yl)imidazo[1,5-a]pyrazin-6-yl]phenyl]-2-methylpyridine-3-sulfonamide] | – | < 50 |
| Cc1nnc(-c2ncn3c2CC[C@@H](c2c(F)ccc(NS(=O)(=O)c4cc(F)cnc4C)c2F)C3)[nH]1 [Compound 134-1, N-[2,4-difluoro-3-[(6S)-1-(5-methyl-4H-1,2,4-triazol-3-yl)-5H,6H,7H,8H-imidazo[1,5-a]pyridin-6-yl]phenyl]-5-fluoro-2-methylpyridine-3-sulfonamide] | – | < 50 |
| Cc1nnc(-c2ncn3c2CC[C@H](c2c(F)ccc(NS(=O)(=O)c4cc(F)cnc4C)c2F)C3)[nH]1 [Compound 134-2, N-[2,4-difluoro-3-[(6R)-1-(5-methyl-4H-1,2,4-triazol-3-yl)-5H,6H,7H,8H-imidazo[1,5-a]pyridin-6-yl]phenyl]-5-fluoro-2-methylpyridine-3-sulfonamide] | – | < 50 |
| COc1ncc(C#N)cc1S(=O)(=O)Nc1ccc(F)c([C@@H]2CCc3c(-c4nnc(C)[nH]4)ncn3C2)c1F [Compound 135-1, 5-cyano-N-[2,4-difluoro-3-[(6S)-1-(5-methyl-4H-1,2,4-triazol-3-yl)-5H,6H,7H,8H-imidazo[1,5-a]pyridin-6-yl]phenyl]-2-methoxypyridine-3-sulfonamide] | 50 to 500 | – |
| COc1ncc(C#N)cc1S(=O)(=O)Nc1ccc(F)c([C@H]2CCc3c(-c4nnc(C)[nH]4)ncn3C2)c1F [Compound 135-2, 5-cyano-N-[2,4-difluoro-3-[(6R)-1-(5-methyl-4H-1,2,4-triazol-3-yl)-5H,6H,7H,8H-imidazo[1,5-a]pyridin-6-yl]phenyl]-2-methoxypyridine-3-sulfonamide] | 50 to 500 | – |
| Cc1nnc(-c2ncn3c2CC[C@@H](c2c(F)ccc(NS(=O)(=O)c4cc(Cl)cnc4C)c2F)C3)[nH]1 [Compound 136-1, 5-chloro-N-[2,4-difluoro-3-[(6S)-1-(5-methyl-4H-1,2,4-triazol-3-yl)-5H,6H,7H,8H-imidazo[1,5-a]pyridin-6-yl]phenyl]-2-methylpyridine-3-sulfonamide] | – | < 50 |
| Cc1nnc(-c2ncn3c2CC[C@H](c2c(F)ccc(NS(=O)(=O)c4cc(Cl)cnc4C)c2F)C3)[nH]1 [Compound 136-2, 5-chloro-N-[2,4-difluoro-3-[(6R)-1-(5-methyl-4H-1,2,4-triazol-3-yl)-5H,6H,7H,8H-imidazo[1,5-a]pyridin-6-yl]phenyl]-2-methylpyridine-3-sulfonamide] | – | < 50 |
| CNC(=O)c1ncn2cc(-c3c(Cl)ccc(NS(=O)(=O)c4cc(Cl)cnc4OC)c3F)ccc12 [Compound 137, 6-[6-chloro-3-(5-chloro-2-methoxypyridine-3-sulfonamido)-2-fluorophenyl]-N-methylimidazo[1,5-a]pyridine-1-carboxamide] | – | < 50 |
| CNC(=O)c1ncn2nc(-c3c(Cl)ccc(NS(=O)(=O)c4cc(Cl)cnc4C)c3F)ccc12 [Compound 138, 2-[6-chloro-3-(5-chloro-2-methylpyridine-3-sulfonamido)-2-fluorophenyl]-N-methylimidazo[1,5-b]pyridazine-5-carboxamide] | – | < 50 |
| CNC(=O)c1ncn2nc(-c3c(F)ccc(NS(=O)(=O)c4cc(Cl)cnc4C)c3Cl)ccc12 [Compound 139, 2-[2-chloro-3-(5-chloro-2-methylpyridine-3-sulfonamido)-6-fluorophenyl]-N-methylimidazo[1,5-b]pyridazine-5-carboxamide] | – | < 50 |
| CNC(=O)c1ncn2cc(-c3c(Cl)ccc(NS(=O)(=O)c4cc(Cl)cnc4OC)c3F)ncc12 [Compound 141, 6-(6-chloro-3-((5-chloro-2-methoxypyridine)-3-sulfonamido)-2-fluorophenyl)-N-methylimidazo[1,5-a]pyrazine-1-carboxamide] | – | < 50 |
| COc1ncc(F)cc1S(=O)(=O)Nc1ccc(Cl)c(-c2cn3cnc(-c4ncc[nH]4)c3cn2)c1F [Compound 142, N-[4-chloro-2-fluoro-3-[1-(1H-imidazol-2-yl)imidazo[1,5-a]pyrazin-6-yl]phenyl]-5-fluoro-2-methoxypyridine-3-sulfonamide] | – | < 50 |
| COc1ncc(Cl)cc1S(=O)(=O)Nc1ccc(F)c(-c2ccc3c(-c4nc(C)c(C)[nH]4)ncn3c2)c1F [Compound 143, 5-chloro-N-(3-(1-(4,5-dimethyl-1H-imidazol-2-yl)imidazo[1,5-a]pyridin-6-yl)-2,4-difluorophenyl)-2-methoxypyridine-3-sulfonamide] | – | < 50 |
| COc1ncc(F)cc1S(=O)(=O)Nc1ccc(F)c(-c2ccc3c(-c4nc(C)c(C)[nH]4)ncn3c2)c1F [Compound 144, N-(3-(1-(4,5-dimethyl-1H-imidazol-2-yl)imidazo[1,5-a]pyridin-6-yl)-2,4-difluorophenyl)-5-fluoro-2-methoxypyridine-3-sulfonamide] | – | < 50 |
| Cc1ncc(F)cc1S(=O)(=O)Nc1ccc(F)c(-c2ccc3c(-c4nc(C)c(C)[nH]4)ncn3c2)c1F [Compound 145, N-(3-(1-(4,5-dimethyl-1H-imidazol-2-yl)imidazo[1,5-a]pyridin-6-yl)-2,4-difluorophenyl)-5-fluoro-2-methylpyridine-3-sulfonamide] | – | < 50 |
| Cc1ncc(Cl)cc1S(=O)(=O)Nc1ccc(F)c(-c2ccc3c(-c4nc(C)c(C)[nH]4)ncn3c2)c1F [Compound 146, 5-chloro-N-(3-(1-(4,5-dimethyl-1H-imidazol-2-yl)imidazo[1,5-a]pyridin-6-yl)-2,4-difluorophenyl)-2-methylpyridine-3-sulfonamide] | – | < 50 |
